In this assay the test system is washed human platelet suspension. Briefly: Inhibition of collagen-induced platelet aggregation (Lumi-Aggregometer). Format: cell-based. The conditions noted are these: washed human platelets, 37° C., 2 min preincubation, collagen 1-4 μg/ml, read out at 6 min after induction, read-out: IC50 (concentration at which 50% aggregation is reached), platelet aggregation inhibitors. As to the method: Platelet shape change in washed platelets was monitored using an aggregometer and the decrease in light transmittance following addition of an agonist (Huzoor et al., 1993). For the purpose of this analysis, collagen was used as the agonist. Briefly, a washed human platelet suspension was incubated at 37° C. in a Lumi-Aggregometer (Chrono-Log Corporation) with stirring at 900 rpm, followed by the addition of dimethylsulfoxide (DMSO) as a control vehicle, or various compounds dissolved in DMSO. After incubating the samples with the respective compound for 2 minutes, platelet aggregation was induced by, adding collagen (1-4 μg/ml) and the relative aggregation value was read out at 6 min after the induction. A dose response for each compound was derived.

Each structure is given as a SMILES string.

Take `O=C(NNc1ccnc2cc(Cl)ccc12)c1ccc(Cl)c(Cl)c1` [UC-177619]: the IC50 worked out at 1.4 µM.

For the compound `O=C(NNc1ccnc2ccccc12)c1ccc(Cl)c(Cl)c1` [UC-177617], the IC50 stood at 16.2 µM. To `O=C(NNc1ccnc2c(C(F)(F)F)cccc12)c1cc2ccccc2[nH]1` [UC-177628] belongs 5.8 µM; to `O=C(NNc1ccnc2cc(C(F)(F)F)ccc12)c1cc2ccccc2[nH]1` [UC-177627], 4.3 µM; to `Cc1ccc(C(=O)NNc2ccnc3cc(Cl)ccc23)cc1` [UC-177634], 6.7 µM. For `O=C(NNc1ccnc2c(C(F)(F)F)cccc12)c1ccc(Cl)c(Cl)c1` [UC-177618], the IC50 came to 1.5 µM. As to `Cc1ccc(C(=O)NNc2ccnc3c(C(F)(F)F)cccc23)cc1` [UC-177633], the IC50 stood at 2.3 µM. With `O=C(NNc1ccnc2ccccc12)c1cc2ccccc2[nH]1` [UC-177626] the figure was 10.1 µM; with `O=C(NNc1ccnc2cc(Cl)ccc12)c1cc2ccccc2[nH]1` [UC-177629], 2.3 µM.

(Values after patent publication US20230086683A1, “PLATELET STORAGE METHODS AND COMPOSITIONS” (Platefuse, Inc., priority 2020, published 2023).)
